Results: patent US9993492B2, “Lysophospholipids and lysophospholipid analogues against honeybee brood diseases” (University of Graz, priority 2013, dated 2018)
Read-outs that look alike come from different tables or passages of the source.

Key:
Assay type in all cases: cell-based
[1] = system: Paenibacillus larvae (Eric II test strain); experiment: Inhibition zone test on Columbia agar; details: Paenibacillus larvae, 24 h, 34.5° C.
Experimental: (§1) As test organisms, several different strains of Paenibacillus larvae were used.
(§2) Overnight cultures of the vegetative forms of bacteria were prepared in BHI (brain heart infusion) liquid medium.
For the inhibition zone test, 500 μL of overnight culture were added to 15-20 mL of Columbia agar, mixed and poured onto a petri dish. After the agar solidified, either punched wholes are filled with different amounts of test compounds or test compounds are pipetted on paper discs (5 mm Ø). The plate is then incubated for 24 h (34.5° C.) and zones of inhibition are measured and given in mm. Lactic acid and penicillin G were used as positive controls.
E II—Eric II (test strain of Pl)

[2] = system: Paenibacillus larvae; experiment: Antimicrobial assay in BHI liquid medium, vegetative forms of Paenibacillus larvae (MIC); details: for MIC: Paenibacillus larvae
Experimental: For the evaluation of certain fatty acids and phospholipids, overnight cultures of vegetative forms of Pl were used (for results see Table 1.1).
as §1, §2
From these overnight cultures, an inoculum of 50 μl is added to 1.0 ml of BHI liquid medium to perform the bacterial test in liquid medium. The compound 1-O-oleoyl-sn-glycero-3-phosphocholine (oleoyl-LPC) together with a positive control was then added at concentrations of 2, 5 and 10 ppm and the test tubes were incubated for 24 h at 34.5° C. Then, the extinction of the solution was measured photometrically.

[3] = system: Melissococcus plutonius; experiment: Antimicrobial assay in liquid Basal Medium against Melissococcus plutonius (MIC); details: Melissococcus plutonius
Experimental: M. pl. was cultured in liquid Basal Medium (BM) for 4 days at 35° C. and from here serial dilutions were carried out to estimate CFU/ml by plating onto BM agar plates. 5 days later CFU were count and concentration was estimated to be 3.46*10^6 CFU/ml. For the antimicrobial assay, an inoculum of 50 μl of the liquid culture is added to 1 mL of BM liquid medium. A set of different substances were tested in different concentrations (2, 5 and 10 ppm) in order to find out their inhibitory effect against M. pl growth. For substances tested, concentration applied and results see table 1.2. Three replicates per substance were included in the experiment. 5 days after the experiment was started OE (optical extinction) was measured at 600 nm.

## CCCCCCCC/C=C\CCCCCCCC(=O)OC[C@@H](O)COP(=O)([O-])OCC[N+](C)(C)C [1-O-oleoyl-sn-glycero-3-phosphocholine]
[1]; amount 5 μg
  zone of inhibition at 5 µg/disc: 3.5 mm
[1]; amount 10 μg
  zone of inhibition at 10 µg/disc: 5 mm
[2]; 24 h, vegetative forms of Pl, liquid medium, read-out: MIC (ppm)
  MIC: 2 to 5 µg/mL
[2]; in vitro, read-out: in vitro Pl inhibitory activity, MIC
  MIC: 2.5 µg/mL
[2]; vegetative forms of Pl, liquid medium, read-out: MIC
  MIC: > 3.8 µM
[2]; in vitro
  inhibitory / antibacterial activity against Pl (in words): good in vitro Pl inhibitory activity
[3]; 120 h, M. pl. in BM liquid medium, OE at 600 nm after 5 days, read-out: MIC
  MIC: > 3.8 µM
[3]; 120 h, M. pl. in BM liquid medium, OE at 600 nm after 5 days, read-out: MIC (ppm)
  MIC: 2 µg/mL
[3]; read-out: in vitro M. pl. inhibitory activity, MIC
  MIC: 2.5 µg/mL
